Assay in all cases: Enzymatic Assay
Holding throughout (conditions): pH 7.5; 24 °C

Assay [1] has as its target T1, Phosphodiesterase (Trypanosoma cruzi, UniProt Q53I59).
T1 sequence (Q53I59 whole entry): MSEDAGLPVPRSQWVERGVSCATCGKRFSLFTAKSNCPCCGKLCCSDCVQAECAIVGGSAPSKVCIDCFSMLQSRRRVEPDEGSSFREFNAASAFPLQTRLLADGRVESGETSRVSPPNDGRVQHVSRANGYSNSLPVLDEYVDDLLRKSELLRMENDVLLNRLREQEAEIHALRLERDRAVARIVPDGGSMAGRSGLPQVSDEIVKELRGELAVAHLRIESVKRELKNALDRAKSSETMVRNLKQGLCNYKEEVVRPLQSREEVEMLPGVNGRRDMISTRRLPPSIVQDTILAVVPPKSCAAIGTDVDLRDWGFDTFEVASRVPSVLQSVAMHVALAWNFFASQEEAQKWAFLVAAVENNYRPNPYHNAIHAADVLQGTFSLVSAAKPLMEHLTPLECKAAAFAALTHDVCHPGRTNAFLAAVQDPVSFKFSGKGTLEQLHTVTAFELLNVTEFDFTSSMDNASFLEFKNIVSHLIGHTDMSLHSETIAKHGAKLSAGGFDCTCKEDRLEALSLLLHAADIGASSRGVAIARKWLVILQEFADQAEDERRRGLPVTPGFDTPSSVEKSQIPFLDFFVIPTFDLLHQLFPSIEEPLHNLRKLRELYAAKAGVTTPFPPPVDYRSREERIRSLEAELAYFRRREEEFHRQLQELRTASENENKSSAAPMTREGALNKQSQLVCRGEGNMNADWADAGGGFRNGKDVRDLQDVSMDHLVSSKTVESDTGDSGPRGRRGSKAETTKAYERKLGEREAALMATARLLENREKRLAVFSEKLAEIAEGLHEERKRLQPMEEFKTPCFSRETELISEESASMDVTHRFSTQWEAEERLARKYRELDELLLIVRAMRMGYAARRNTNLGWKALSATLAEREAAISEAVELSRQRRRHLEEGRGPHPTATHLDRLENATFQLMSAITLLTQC
On the procedure:
(§1) Enzymatic activities were assayed using [3H] cAMP and [3H]cGMP as substrate.

Assay [2] has as its target cAMP-specific 3',5'-cyclic phosphodiesterase 4D (Homo sapiens, UniProt Q08499). On the procedure:
as §1

The target of assay [3] is cGMP-inhibited 3',5'-cyclic phosphodiesterase 3A (Homo sapiens, UniProt Q14432). On the procedure:
as §1

The target of assay [4] is cGMP-dependent 3',5'-cyclic phosphodiesterase (Homo sapiens, UniProt O00408). On the procedure:
as §1

In assay [5] the target is High affinity cAMP-specific and IBMX-insensitive 3',5'-cyclic phosphodiesterase 8A (Homo sapiens, UniProt O60658). On the procedure: as §1
Assay [6] has as its target cGMP-specific 3',5'-cyclic phosphodiesterase (Homo sapiens, UniProt O76074). On the procedure:
as §1

Counter-ions that a name gives are not always drawn. A value given as a limit tells only on which side of the number the result lay.

Consider 14 molecules from BindingDB's records for doi:10.1074/jbc.M111.326777 (University of North Carolina, 2012).

Chain of cGMP-inhibited 3',5'-cyclic phosphodiesterase 3A (Q14432 whole entry): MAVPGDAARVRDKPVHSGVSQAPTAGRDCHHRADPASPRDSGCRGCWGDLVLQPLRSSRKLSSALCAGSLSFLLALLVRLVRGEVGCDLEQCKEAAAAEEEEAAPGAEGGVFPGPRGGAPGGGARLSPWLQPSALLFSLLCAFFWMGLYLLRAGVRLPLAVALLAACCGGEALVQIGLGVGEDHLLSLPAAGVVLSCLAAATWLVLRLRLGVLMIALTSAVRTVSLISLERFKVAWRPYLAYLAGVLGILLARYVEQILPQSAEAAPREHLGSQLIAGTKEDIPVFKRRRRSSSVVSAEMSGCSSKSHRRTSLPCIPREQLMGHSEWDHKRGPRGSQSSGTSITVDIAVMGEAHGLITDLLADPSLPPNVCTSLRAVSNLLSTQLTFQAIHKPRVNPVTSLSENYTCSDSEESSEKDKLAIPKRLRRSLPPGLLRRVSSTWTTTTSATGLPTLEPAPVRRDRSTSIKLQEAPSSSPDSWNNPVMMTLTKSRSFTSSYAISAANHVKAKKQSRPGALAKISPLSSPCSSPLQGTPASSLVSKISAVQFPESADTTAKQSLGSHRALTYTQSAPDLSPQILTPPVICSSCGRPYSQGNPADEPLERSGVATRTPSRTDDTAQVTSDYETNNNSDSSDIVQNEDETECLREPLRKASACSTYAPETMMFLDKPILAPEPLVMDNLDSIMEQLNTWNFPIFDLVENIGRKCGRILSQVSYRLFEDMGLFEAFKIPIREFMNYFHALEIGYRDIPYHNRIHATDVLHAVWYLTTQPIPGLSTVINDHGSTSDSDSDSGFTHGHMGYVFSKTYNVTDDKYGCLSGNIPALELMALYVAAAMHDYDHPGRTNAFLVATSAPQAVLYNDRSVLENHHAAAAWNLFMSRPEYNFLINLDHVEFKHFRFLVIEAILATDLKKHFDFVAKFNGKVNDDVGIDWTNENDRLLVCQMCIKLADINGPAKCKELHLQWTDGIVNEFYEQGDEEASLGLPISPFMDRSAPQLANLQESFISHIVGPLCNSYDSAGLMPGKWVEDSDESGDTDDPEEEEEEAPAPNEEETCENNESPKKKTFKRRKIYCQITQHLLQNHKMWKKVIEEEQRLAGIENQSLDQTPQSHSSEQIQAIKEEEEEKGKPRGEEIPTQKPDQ
Chain of cAMP-specific 3',5'-cyclic phosphodiesterase 4D (Q08499 whole entry): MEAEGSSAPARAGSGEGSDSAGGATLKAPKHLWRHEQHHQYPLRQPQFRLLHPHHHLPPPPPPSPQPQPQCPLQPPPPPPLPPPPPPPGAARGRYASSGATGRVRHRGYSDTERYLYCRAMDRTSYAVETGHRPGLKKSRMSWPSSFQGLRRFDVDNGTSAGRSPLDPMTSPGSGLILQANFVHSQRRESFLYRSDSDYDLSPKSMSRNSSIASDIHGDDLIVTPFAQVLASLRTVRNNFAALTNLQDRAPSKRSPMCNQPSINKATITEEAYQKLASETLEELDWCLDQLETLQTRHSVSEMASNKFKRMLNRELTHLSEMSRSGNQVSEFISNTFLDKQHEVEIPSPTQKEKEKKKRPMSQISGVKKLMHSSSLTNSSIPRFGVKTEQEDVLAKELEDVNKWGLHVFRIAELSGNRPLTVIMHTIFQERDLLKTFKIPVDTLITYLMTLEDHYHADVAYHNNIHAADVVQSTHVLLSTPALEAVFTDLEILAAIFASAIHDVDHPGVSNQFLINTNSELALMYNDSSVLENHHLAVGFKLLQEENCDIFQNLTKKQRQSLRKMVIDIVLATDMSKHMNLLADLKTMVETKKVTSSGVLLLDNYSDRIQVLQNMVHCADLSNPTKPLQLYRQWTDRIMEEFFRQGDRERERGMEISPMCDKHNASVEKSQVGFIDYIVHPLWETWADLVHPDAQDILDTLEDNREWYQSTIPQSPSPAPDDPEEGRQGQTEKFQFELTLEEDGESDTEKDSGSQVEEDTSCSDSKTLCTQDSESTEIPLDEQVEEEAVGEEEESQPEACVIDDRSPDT
Chain of High affinity cAMP-specific and IBMX-insensitive 3',5'-cyclic phosphodiesterase 8A (O60658 whole entry): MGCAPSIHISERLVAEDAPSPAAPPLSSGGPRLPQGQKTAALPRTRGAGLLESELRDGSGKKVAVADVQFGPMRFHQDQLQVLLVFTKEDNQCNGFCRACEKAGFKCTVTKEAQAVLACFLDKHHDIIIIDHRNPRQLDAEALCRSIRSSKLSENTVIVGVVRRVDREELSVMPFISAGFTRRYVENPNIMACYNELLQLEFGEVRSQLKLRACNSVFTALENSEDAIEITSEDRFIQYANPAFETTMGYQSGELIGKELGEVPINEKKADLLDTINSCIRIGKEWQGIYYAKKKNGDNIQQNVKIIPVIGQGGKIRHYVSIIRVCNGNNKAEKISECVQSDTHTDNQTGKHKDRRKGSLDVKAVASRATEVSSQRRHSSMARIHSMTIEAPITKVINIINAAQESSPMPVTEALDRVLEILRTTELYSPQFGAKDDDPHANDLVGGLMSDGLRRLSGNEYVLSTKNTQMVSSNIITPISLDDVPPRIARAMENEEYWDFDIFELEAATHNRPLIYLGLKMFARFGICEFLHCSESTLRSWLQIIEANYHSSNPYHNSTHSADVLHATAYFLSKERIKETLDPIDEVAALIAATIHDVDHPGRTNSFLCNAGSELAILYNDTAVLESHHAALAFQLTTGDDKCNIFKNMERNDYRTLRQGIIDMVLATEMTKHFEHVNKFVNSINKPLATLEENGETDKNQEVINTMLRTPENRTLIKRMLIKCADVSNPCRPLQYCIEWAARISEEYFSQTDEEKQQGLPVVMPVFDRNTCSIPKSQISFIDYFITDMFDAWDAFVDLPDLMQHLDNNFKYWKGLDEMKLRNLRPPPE
Chain of cGMP-dependent 3',5'-cyclic phosphodiesterase (O00408 whole entry): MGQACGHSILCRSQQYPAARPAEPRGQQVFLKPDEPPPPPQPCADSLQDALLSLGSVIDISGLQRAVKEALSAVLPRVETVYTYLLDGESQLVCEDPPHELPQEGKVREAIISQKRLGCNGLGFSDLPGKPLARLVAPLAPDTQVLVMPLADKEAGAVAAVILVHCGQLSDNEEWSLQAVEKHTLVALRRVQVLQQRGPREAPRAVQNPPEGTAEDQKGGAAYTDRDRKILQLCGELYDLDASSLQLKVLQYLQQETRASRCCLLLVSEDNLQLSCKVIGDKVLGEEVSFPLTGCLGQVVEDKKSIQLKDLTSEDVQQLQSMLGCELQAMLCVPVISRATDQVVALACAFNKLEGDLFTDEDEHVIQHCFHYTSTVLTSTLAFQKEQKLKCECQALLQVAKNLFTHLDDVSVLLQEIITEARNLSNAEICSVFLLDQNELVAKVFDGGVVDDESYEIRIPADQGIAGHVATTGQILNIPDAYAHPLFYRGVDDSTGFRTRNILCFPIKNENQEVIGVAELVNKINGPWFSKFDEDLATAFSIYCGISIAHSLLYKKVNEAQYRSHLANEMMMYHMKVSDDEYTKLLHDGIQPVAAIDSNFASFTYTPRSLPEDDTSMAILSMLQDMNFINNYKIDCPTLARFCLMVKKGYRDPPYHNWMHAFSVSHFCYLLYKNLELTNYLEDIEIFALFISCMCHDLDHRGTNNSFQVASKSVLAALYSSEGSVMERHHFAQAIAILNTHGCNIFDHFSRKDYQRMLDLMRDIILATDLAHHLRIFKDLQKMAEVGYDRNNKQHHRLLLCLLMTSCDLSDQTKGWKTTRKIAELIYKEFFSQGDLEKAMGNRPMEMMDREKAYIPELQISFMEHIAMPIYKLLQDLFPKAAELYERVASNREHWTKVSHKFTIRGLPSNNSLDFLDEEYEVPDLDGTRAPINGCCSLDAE

Consider `CCOC(=O)c1cnc2c(cnn2CC)c1N=NC(C)C` [1-Ethyl-4-(N'-isopropylidene-hydrazino)-1H-pyrazolo[3,4-b]pyridine-5-carboxylic acid ethyl ester], for which the half-maximal inhibitory concentration (IC50) in assay [1] came out at 700 nM; in assay [2], 2000 nM.
`CCCOc1cc(CC2CNC(=O)N2)ccc1OC` (stereo not given) [Ro20-1724] registered an IC50 in assay [1] above 100000 nM.
The same measure, in the same setting: for `CC(C)Cn1c(=O)n(C)c(=O)c2[nH]cnc21` [1-methyl-3-(2-methylpropyl)-2,3,6,7-tetrahydro-1H-purine-2,6-dione] the value was 68000 nM; for `CCCc1nn(C)c2c(=O)[nH]c(-c3cc(S(=O)(=O)N4CCN(C)CC4)ccc3OCC)nc12` [SILDENAFIL CITRATE], above 1000 nM.
Consider `COc1cc(-c2ccc(=O)[nH]n2)ccc1OC(F)F` [6-[4-(difluoromethoxy)-3-methoxyphenyl]-2,3-dihydropyridazin-3-one], for which the IC50 was above 100000 nM in assay [1] and 500 nM in assay [3].
In turn, `CN(C(=O)CCCOc1ccc2[nH]c(=O)ccc2c1)C1CCCCC1` [N-Cyclohexyl-N-methyl-4-(2-oxo-1,2-dihydro-quinolin-6-yloxy)-butyramide] returned an IC50 in assay [1] above 100000 nM.
Consider `CCCCCC[C@H]([C@H](C)O)n1cnc2c(N)ncnc21` (relative stereo) [3-(6-amino-9H-purin-9-yl)nonan-2-ol], for which the IC50 was above 100000 nM in assay [1] and 800 nM in assay [4].
For the molecule `OCCN(CCO)c1nc(N2CCCCC2)c2nc(N(CCO)CCO)nc(N3CCCCC3)c2n1` [Dipyridamine], the IC50 in assay [5] came to 500 nM; in assay [1], 6900 nM.
In the case of `COc1ccc([C@@H]2CNC(=O)C2)cc1OC1CCCC1` (racemic) [Adeo], in assay [1], the IC50 was above 100000 nM.
Still for that read-out and setting: then `Cc1[nH]c(=O)c(C#N)cc1-c1ccncc1` [Milrinone], with above 100000 nM.
Turning to `CCCc1nn(C)c2c(=O)[nH]c(-c3cc(S(=O)(=O)NC(=O)OC(C)C)ccc3OCC)nc12` [Wyq16#], the IC50 in assay [1] came out at 230 nM; in assay [6], 3 nM.
On to `CC(=O)CCCCn1c(=O)c2c(ncn2C)n(C)c1=O` [1-(5-Oxohexyl)theobromine (pentoxifylline)], for which, in assay [1], the half-inhibitory concentration (IC50) is above 100000 nM.
Same read-out and setting: for `COc1ccc(Cc2nccc3cc(OC)c(OC)cc23)cc1OC` the value was 25000 nM.
For `COc1cc2c(cc1OC)-c1c/c(=N\c3c(C)cc(C)cc3C)n(C)c(=O)n1CC2` [CAS_5537], the IC50 in assay [1] was 3900 nM; in assay [3], 0.3 nM.

What is called IC50 is the concentration needed to halve the response being measured.
